# BindingDB's records for doi:10.1016/j.chembiol.2007.10.017 (University of California Irvine, 2007)
# Target: T1, Monoglyceride lipase (Rattus norvegicus, UniProt Q8R431)
# T1 sequence (Q8R431 whole entry): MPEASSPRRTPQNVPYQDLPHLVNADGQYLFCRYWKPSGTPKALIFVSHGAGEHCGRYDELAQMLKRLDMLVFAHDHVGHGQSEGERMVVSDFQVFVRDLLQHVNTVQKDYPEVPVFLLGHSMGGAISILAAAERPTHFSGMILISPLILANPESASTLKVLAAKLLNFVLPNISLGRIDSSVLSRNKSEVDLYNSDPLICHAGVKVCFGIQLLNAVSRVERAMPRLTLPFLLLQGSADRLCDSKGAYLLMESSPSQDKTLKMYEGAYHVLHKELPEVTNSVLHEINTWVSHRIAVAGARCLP
# Experiment: Inhibition Assay
# Conditions: pH 8
# Text: The measurement of the ability of URB602 compound to inhibit MGL activity.
row,IC50,Compound
1,> 300 µM,"O=C(Nc1cccc(Oc2cccc(-c3ccccc3)c2)c1)OC1CCCCC1 [URB602, 3f]"
2,> 300 µM,"O=C(Nc1ccc(-c2ccccc2)cc1)OC1CCCCC1 [URB602, 3k]"
3,243 µM,"O=C(Nc1cccc(-c2ccccc2)c1)Oc1ccccc1 [URB602, 3l]"
4,> 300 µM,"Cc1cccc(-c2cccc(NC(=O)OC(CO)CO)c2)c1 [URB602, 3m]"
5,> 300 µM,"O=C(Nc1cccc(-c2ccccc2)c1)OC(CO)CO [URB602, 3n]"
6,> 300 µM,"CN(C(=O)OC1CCCCC1)c1cccc(-c2ccccc2)c1 [URB602, 3o]"
7,115 µM,"O=C(Nc1cccc(-c2ccccc2)c1)NC1CCCCC1 [URB602, 4a]"
8,> 300 µM,"O=C(CC1CCCCC1)Nc1cccc(-c2ccccc2)c1 [URB602, 5]"
9,223 µM,O=C(Nc1cccc(-c2ccccc2)c1)OC1CCCCC1 [cyclohexyl biphenyl-3-ylcarbamate]

# Further lines, the compound ahead of its results:
row,Compound,IC50
1,"O=C(NCCCCCc1ccccc1)OC1CCCCC1 [URB602, 3a]",> 300 µM
2,"O=C(Nc1ccccc1)OC1CCCCC1 [URB602, 3b]",> 300 µM
3,"O=C(Nc1cccc(-c2ccccc2)c1)OCCCCCc1ccccc1 [URB602, 3c]",> 300 µM
4,"Cc1cccc(-c2cccc(NC(=O)OC3CCCCC3)c2)c1 [URB602, 3d]",> 300 µM
5,"O=C(Nc1cccc(-c2cccc(C(F)(F)F)c2)c1)OC1CCCCC1 [URB602, 3e]",> 300 µM
6,"O=C(Nc1ccccc1-c1ccccc1)OC1CCCCC1 [URB602, 3g]",> 300 µM
7,"O=C(Nc1cccc(-c2ccccc2)c1)OCC(O)CO (centres undefined) [URB602, 3h]",> 300 µM
8,"CC1(C)OCC(OC(=O)Nc2cccc(-c3ccccc3)c2)CO1 [URB602, 3i]",> 300 µM
9,"O=C(Nc1cccc(-c2ccccc2)c1)Oc1cccc(-c2ccccc2)c1 [URB602, 3j]",> 300 µM
10,"O=C(Nc1cccc(-c2ccccc2)c1)SC1CCCCC1 [URB602, 6]",> 300 µM
